According to PMC7594198 (International Journal of Nanomedicine, 2020):
Blank lines part the entries; values can stand above or below the molecule they belong to.

Tests used:
[1] = biological target: T1, hCG protein (Homo sapiens, UniProt P01215+P0DN86); experiment: SPR kinetics of peptide-hCG binding, GO-based chip, PBS buffer; settings: hCG 10 pM-1 nM, 30 μL/min, 1:1 Langmuir model
[2] = biological target: T1, hCG protein; experiment: SPR kinetics of peptide-hCG binding, carboxyl-GO chip, clinical serum samples
[3] = system: peptide probe immobilized on carboxyl-GO chip; experiment: SPR selectivity test with interfering proteins, PBS buffer; assay type: binding; settings: for interference signal: 500 pM, carboxyl-GO-based SPR aptasensor, PBS and spiked 10% serum; for average SPR angle shift: protein 500 pM, PBS buffer, 60 μL/min, measured six times
[4] = system: peptide probe immobilized on carboxyl-GO chip; experiment: SPR selectivity test with interfering proteins, spiked 10% serum; assay type: binding; settings: protein 500 pM, 60 μL/min, measured six times

T1 sequence (P01215 25-116, other chains not shown): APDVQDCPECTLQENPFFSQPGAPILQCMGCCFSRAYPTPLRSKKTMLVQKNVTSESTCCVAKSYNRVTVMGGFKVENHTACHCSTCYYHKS

KA [1]: 1.41e+10 M⁻¹
ka [1]: 7.32 ×10^6 M^−1S^−1
kd [1]: 5.22 ×10^−4 S^−1
binding constant KA ([2]; serum FDSW-1, 19 weeks): 7.22e+10 M⁻¹
binding constant KA ([2]; serum FDSW-2, 14 weeks): 9.39e+10 M⁻¹
binding constant KA ([2]; serum FDSW-3, 12 weeks): 2.033e+11 M⁻¹
binding constant KA ([2]; serum FDSW-4, 12 weeks): 5.71e+10 M⁻¹
binding constant KA ([2]; serum FDSW-5, 16 weeks): 5.14e+10 M⁻¹
binding constant KA ([2]; serum FDSW-6, 17 weeks): 1.39e+11 M⁻¹
binding constant KA ([2]; serum NPW-1, 15 weeks): 2.819e+11 M⁻¹
binding constant KA ([2]; serum NPW-2, 12 weeks): 2.763e+11 M⁻¹
binding constant KA ([2]; serum NPW-3, 14 weeks): 1.28e+10 M⁻¹
binding constant KA ([2]; serum NPW-4, 17 weeks): 1.48e+10 M⁻¹
Molecule: H-PPLRINRHILTR-OH [peptide]

Molecule: bovine serum albumin [BSA]
interference signal [3]: close to that of a blank solution
average SPR angle shift [3]: 1.31 m^o
average SPR angle shift [4]: 2.60 m^o

Molecule: pregnancy-associated plasma protein A2 [PAPP-A2]
interference signal [3]: close to that of a blank solution
average SPR angle shift [3]: 2.39 m^o
average SPR angle shift [4]: 2.51 m^o

Molecule: pregnancy-associated plasma protein A [PAPP-A]
interference signal [3]: close to that of a blank solution
average SPR angle shift [3]: 1.37 m^o
average SPR angle shift [4]: 2.42 m^o

B1: human cytokeratin 19 (protein, UniProt P08727 1-400, looked up)
Keratin, type I cytoskeletal …: MTSYSYRQSSATSSFGGLGGGSVRFGPGVAFRAPSIHGGSGGRGVSVSSARFVSSSSSGAYGGGYGGVLTASDGLLAGNEKLTMQNLNDRLASYLDKVRALEAANGELEVKIRDWYQKQGPGPSRDYSHYYTTIQDLRDKILGATIENSRIVLQIDNARLAADDFRTKFETEQALRMSVEADINGLRRVLDELTLARTDLEMQIEGLKEELAYLKKNHEEEISTLRGQVGGQVSVEVDSAPGTDLAKILSDMRSQYEVMAEQNRKDAEAWFTSRTEELNREVAGHTEQLQMSRSEVTDLRRTLQGLEIELQSQLSMKAALEDTLAETEARFGAQLAHIQALISGIEAQLGDVRADSERQNQEYQRLMDIKSRLEQEIATYRSLLEGQEDHYNNLSASKVL
interference signal [3]: close to that of a blank solution
average SPR angle shift [3]: 1.65 m^o
average SPR angle shift [4]: 1.74 m^o
